{
  "source": "patent US7157570B2",
  "about": "“Human ribonucleotide reductase M2 subunit” (priority 2002, dated 2007)",
  "key": {"[1]": {"tested_on": "KB cells", "assay": "colony-forming assay", "type": "cell-based, human", "settings": "drug alone (0.1 mM HU or 0.3 μM Gem)", "protocol": "Human oropharyngeal carcinoma KB cells (American Type Culture Collection) were cultured on plastic tissue culture plates in RPMI 1640 supplemented with 10% fetal bovine serum at 37° C. in a humidified atmosphere containing 5% carbon dioxide. […] In all studies, HU was included in the growth medium where indicated at a concentration of 0.1 mM while Gem was provided at a concentration of 0.3 μM.\nThe colony-forming ability of KB cells treated with HU and/or Gem at varying times was determined. Equal numbers of logarithmically growing cells were treated with HU and/or Gem at the times specified and then plated in 6-well tissue culture dishes as previously described (Zhou et al. (1998) Biochem Pharmaco 55, 1657–1665). The numbers of colonies, consisting of at least 50 cells, for each sample were counted after incubation at 37° C. for 8 generation times.\nThe colony-forming ability of KB cells treated with HU and/or Gem was assayed using the ID50 concentrations for KB cells. KB cells were exposed to 0.1 mM HU. 0.3 μM Gem was added after 2 to 24 hours of HU treatment, and then cells were assayed for their colony forming ability."}, "[2]": {"assay": "phase I trial: dose-limiting toxicities and MTD", "type": "in vivo, human", "settings": "on days 2 and 9; HU 500 mg every 6 h x4 on days 1 and 8", "procedure": "Pregnant female patients were excluded.\nPatients received the chemotherapy as outpatients.\nHematologic dose-limiting toxicity (DLT) was defined as a platelet count <75,000/μl on day 8, or a platelet count <25,000/μl lasting seven or more days, an ANC <1,000/μl on day 8 or an ANC <500/μl lasting seven or more days. Hepatic DLT was defined as bilirubin 4.5–6.0 mg/dl or transaminase 8.0–20.0 times normal (grade 3), and bilirubin >6.0 mg/dl or transaminase more than 20.0 times normal (grade 4). Other toxicities were graded according to the NCl Common Toxicity Criteria Version 1.0. Dose escalations and determination of the maximum tolerated dose (MTD) were based on DLT occurring in the first cycle. MTD was defined as the highest dose tested at which none or only one patient experienced DLT when at least six patients were treated at that dose and were evaluable for toxicity. Patients received additional cycles of therapy until unacceptable toxicity required discontinuation of treatment, the patient requested discontinuation, or disease progression occurred."}, "[3]": {"assay": "clinical", "set-up": "species or system human", "settings": "in vivo", "procedure": "Blood sample were collected in heparinized tubes and kept on ice until plasma could be separated by centrifugation (within 30 min). Plasma was transferred to polypropylene tubes containing tetrahydrouridine to inhibit cytidine deaminase and stored at -70° C. until analysis. […] Detection was performed by UV absorbance at 275 nm. […] The inter- and intra-day coefficient of variation across the entire range of the standard curve were <10%, and the accuracies were ±7%. The lower limit of quantification of the assay was 5 ng/ml. […] Data were fitted to a two-compartment model with first-order elimination."}, "[4]": {"tested_on": "KBGem clone", "settings": "cited from earlier work"}},
  "data": [
    {"smiles": "Nc1ccn([C@@H]2O[C@H](CO)[C@@H](O)C2(F)F)c(=O)n1", "note": "[Gemcitabine, gemcitabine]", "values": [
      {"measurement": "colony formation, % of untreated controls", "setting": "[1]", "value": "approximately 50%"},
      {"measurement": "MTD for gemcitabine in this combination of drugs", "setting": "[2]", "value": 750, "unit": "mg/m^2"},
      {"measurement": "t1/2 alpha", "setting": "[3]; human", "value": "2.4 ± 1.4", "unit": "min"},
      {"measurement": "variation of CLsys within a single dose level", "setting": "[3]; human", "value": "about 6 fold"},
      {"measurement": "half-life", "setting": "[3]; human, t1/2 alpha", "value": "2.6 ± 1.9", "unit": "min"},
      {"measurement": "half-life", "setting": "[3]; human, t 1/2 alpha, Mean", "value": 2.7, "unit": "min"},
      {"measurement": "half-life", "setting": "[3]; human, t1/2 beta", "value": "15.2 ± 5.3", "unit": "min"},
      {"measurement": "differences in pharmacokinetic parameters between day 2 and day 9", "setting": "[3]", "value": "no significant differences"},
      {"measurement": "effect of administered dose on CLsys", "setting": "[3]", "value": "no apparent effect"},
      {"measurement": "increase in resistance (to Gem)", "setting": "[4]", "value": 10, "unit": "fold"}
    ]}
  ]
}
